Source: ChEMBL document CHEMBL1201862, “PubChem BioAssay data set” (2004)
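How tested: cells in 96-well plates exposed to compound for 48 hours at five concentrations. GI50 marks 50% less growth.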 The source made the active and inactive calls. No stated cut-off is given here; in the data, active = GI50 up to about 1.1 µM and inactive = higher.

Legend:
Test in all cases: NCI-60 cell line screen, 48 h
[1] = system: SK-OV-3
[2] = system: NCI/ADR-RES
[3] = system: Malme-3M
[4] = system: SK-MEL-28
[5] = system: SF-268
[6] = system: ACHN
[7] = system: HCT-15
[8] = system: EKVX
[9] = system: A498
[10] = system: SK-MEL-5
[11] = system: SW-620
[12] = system: HCC 2998
[13] = system: SF-539
[14] = system: OVCAR-5
[15] = system: HT-29
[16] = system: KM12
[17] = system: HCT-116
[18] = system: OVCAR-3
[19] = system: SNB-75
[20] = system: UACC-62

SMILES | GI50 [1] | GI50 [2] | GI50 [3] | GI50 [4] | GI50 [5] | GI50 [6] | GI50 [7] | GI50 [8] | GI50 [9] | GI50 [10] | GI50 [11] | GI50 [12] | GI50 [13] | GI50 [14] | GI50 [15] | GI50 [16] | GI50 [17] | GI50 [18] | GI50 [19] | GI50 [20]
CC(=O)Nc1cc2c(cc1O)CC[C@@H]1[C@@H]2CC[C@]2(C)[C@@H](O)CC[C@@H]12 | > 100 µM (inactive) | 19.9 µM (inactive) | 21.8 µM (inactive) | 63.4 µM (inactive) | 13.1 µM (inactive) | 41.6 µM (inactive) | 15.3 µM | 33 µM (inactive) | 24.1 µM (inactive) | 22.4 µM (inactive) | 27.7 µM (inactive) | 37.2 µM (inactive) | 34.5 µM (inactive) | 86.9 µM (inactive) | 30.4 µM (inactive) | 15 µM (inactive) | – | – | – | –
C=CCN1C(N)=C(C(N)=O)S/C1=C1/SC(=S)N(c2ccc(C)cc2)C1=O | > 100 µM (inactive) | – | 36.8 µM (inactive) | > 100 µM (inactive) | > 100 µM (inactive) | > 100 µM (inactive) | – | – | 3.65 µM (inactive) | > 100 µM (inactive) | > 100 µM (inactive) | – | > 100 µM (inactive) | 5.66 µM (inactive) | > 100 µM (inactive) | > 100 µM (inactive) | > 100 µM (inactive) | > 100 µM (inactive) | 12.6 µM (inactive) | > 100 µM (inactive)
COc1cc(Nc2c3ccccc3nc3ccccc23)ccc1NS(C)(=O)=O | 14.7 µM (inactive) | – | 7.66 µM (inactive) | 7.52 µM (inactive) | 4.39 µM (inactive) | 4.11 µM (inactive) | – | 10 µM (inactive) | 6.31 µM (inactive) | 6.53 µM (inactive) | 2.61 µM (inactive) | 14.2 µM (inactive) | 4.41 µM (inactive) | 11 µM (inactive) | 3.34 µM (inactive) | 6.97 µM (inactive) | 3.27 µM (inactive) | 6.53 µM (inactive) | 7.46 µM (inactive) | 6.61 µM (inactive)
N#CC(NC12CC3CC(CC(C3)C1)C2)c1ccccc1C(F)(F)F (configuration not stated) | – | – | > 100 µM (inactive) | > 100 µM (inactive) | > 100 µM (inactive) | > 100 µM (inactive) | > 100 µM | > 100 µM (inactive) | – | > 100 µM (inactive) | > 100 µM (inactive) | > 100 µM (inactive) | > 100 µM (inactive) | > 100 µM (inactive) | > 100 µM (inactive) | > 100 µM (inactive) | > 100 µM (inactive) | > 100 µM (inactive) | – | –
O=C1/C(=C\c2cccc(Oc3ccccc3)c2)SC(c2ccccc2)N1c1cccc([N+](=O)[O-])c1 (configuration not stated) | > 100 µM (inactive) | 82.8 µM (inactive) | > 100 µM (inactive) | > 100 µM (inactive) | > 100 µM (inactive) | > 100 µM (inactive) | > 100 µM | > 100 µM (inactive) | > 100 µM (inactive) | 42.8 µM (inactive) | 56.4 µM (inactive) | > 100 µM (inactive) | 25.1 µM (inactive) | > 100 µM (inactive) | 33.9 µM (inactive) | 72.1 µM (inactive) | 32.7 µM (inactive) | > 100 µM (inactive) | – | 60.1 µM (inactive)
COc1ccc(CNc2nc3cc(C(F)(F)F)ccc3nc2C)cc1OC | 36.7 µM (inactive) | – | 20.1 µM (inactive) | 44.1 µM (inactive) | 33.3 µM (inactive) | – | 34.8 µM | 20.2 µM (inactive) | 24.3 µM (inactive) | 17.3 µM (inactive) | 37.9 µM (inactive) | 17.9 µM (inactive) | 29.2 µM (inactive) | 37.5 µM (inactive) | 39.9 µM (inactive) | 23.7 µM (inactive) | 26.2 µM (inactive) | 32.5 µM (inactive) | 18.5 µM (inactive) | 31.6 µM (inactive)
Cc1c(C#N)c2nnn(C)c(=O)n2c1-c1ccccc1 | > 100 µM (inactive) | 17.5 µM (inactive) | – | > 100 µM (inactive) | > 100 µM (inactive) | > 100 µM (inactive) | > 100 µM | 56 µM (inactive) | 98.6 µM (inactive) | – | > 100 µM (inactive) | > 100 µM (inactive) | > 100 µM (inactive) | > 100 µM (inactive) | – | 57.1 µM (inactive) | – | > 100 µM (inactive) | 23.6 µM (inactive) | > 100 µM (inactive)
O=C(CCl)NC(Cc1ccc(F)cc1)C(=O)O (configuration not stated) | > 100 µM (inactive) | > 100 µM (inactive) | 69.3 µM (inactive) | > 100 µM (inactive) | > 100 µM (inactive) | – | > 100 µM | > 46 µM (inactive) | > 100 µM (inactive) | > 100 µM (inactive) | > 100 µM (inactive) | > 92.7 µM (inactive) | > 100 µM (inactive) | > 100 µM (inactive) | > 100 µM (inactive) | > 100 µM (inactive) | > 100 µM (inactive) | > 100 µM (inactive) | > 100 µM (inactive) | > 100 µM (inactive)
Cc1sc(Cc2ccccc2)nc1-c1ccc(N)cc1 | – | 27.7 µM (inactive) | 31.3 µM (inactive) | 30.9 µM (inactive) | 25 µM (inactive) | 31.2 µM (inactive) | 19.8 µM | 31.4 µM (inactive) | 29.4 µM (inactive) | 18 µM (inactive) | 23.7 µM (inactive) | 19.1 µM (inactive) | – | 32.5 µM (inactive) | 22.6 µM (inactive) | 17 µM (inactive) | 20.2 µM (inactive) | 20.7 µM (inactive) | – | 15.1 µM (inactive)
CC(C)(C)CI | 48.4 µM (inactive) | – | 19.7 µM (inactive) | 50.6 µM (inactive) | 33.7 µM (inactive) | 20.7 µM (inactive) | 33 µM | 61.5 µM (inactive) | 41.6 µM (inactive) | 16.9 µM (inactive) | 18.1 µM (inactive) | 19.4 µM (inactive) | 88.5 µM (inactive) | 32.2 µM (inactive) | > 10 µM (inactive) | 25.7 µM (inactive) | 18.5 µM (inactive) | 19.1 µM (inactive) | 26.4 µM (inactive) | 29.9 µM (inactive)
O=C(O)c1ccc([Se][Se]c2ccc(C(=O)O)cc2)cc1 | – | – | 26.1 µM (inactive) | 20.7 µM (inactive) | 33.9 µM (inactive) | – | 35.6 µM | 23.6 µM (inactive) | – | – | 32.4 µM (inactive) | 35.9 µM (inactive) | 36.1 µM (inactive) | 23.5 µM (inactive) | – | 29 µM (inactive) | 18.1 µM (inactive) | 22.5 µM (inactive) | 33.9 µM (inactive) | 19.3 µM (inactive)
NC1C=NNC1=O (configuration not stated) | > 100 µM (inactive) | – | > 100 µM (inactive) | > 100 µM (inactive) | > 100 µM (inactive) | > 100 µM (inactive) | > 100 µM | > 100 µM (inactive) | – | > 100 µM (inactive) | > 100 µM (inactive) | > 100 µM (inactive) | > 100 µM (inactive) | > 100 µM (inactive) | > 100 µM (inactive) | > 100 µM (inactive) | – | – | > 100 µM (inactive) | > 100 µM (inactive)
COc1cc(Nc2nc3cc(C(F)(F)F)ccc3n3cccc23)cc(OC)c1OC | > 100 µM (inactive) | 9.4 µM (inactive) | > 100 µM (inactive) | > 100 µM (inactive) | > 100 µM (inactive) | > 100 µM (inactive) | > 100 µM | > 100 µM (inactive) | > 100 µM (inactive) | 26.7 µM (inactive) | > 100 µM (inactive) | > 100 µM (inactive) | > 100 µM (inactive) | > 100 µM (inactive) | – | – | > 100 µM (inactive) | > 100 µM (inactive) | > 100 µM (inactive) | > 100 µM (inactive)
Cc1c2ccnc(C(F)(F)F)c2cc2c1[nH]c1ccccc12 | 36.3 µM (inactive) | > 125 µM (inactive) | 98.2 µM (inactive) | > 125 µM (inactive) | 101 µM (inactive) | – | > 125 µM | > 125 µM (inactive) | 11.4 µM (inactive) | > 125 µM (inactive) | > 125 µM (inactive) | > 125 µM (inactive) | 99.1 µM (inactive) | > 125 µM (inactive) | > 125 µM (inactive) | 121 µM (inactive) | > 125 µM (inactive) | 114 µM (inactive) | 64 µM (inactive) | > 125 µM (inactive)
CC1(C)CCCC2(C)[C@@H]1CC[C@]13C[C@](C)(CC[C@@H]21)[C@@H]3CO (some centres not stated) | > 100 µM (inactive) | – | > 100 µM (inactive) | > 100 µM (inactive) | > 100 µM (inactive) | > 100 µM (inactive) | > 100 µM | – | – | > 100 µM (inactive) | > 100 µM (inactive) | > 100 µM (inactive) | > 100 µM (inactive) | > 100 µM (inactive) | > 100 µM (inactive) | > 100 µM (inactive) | > 100 µM (inactive) | > 100 µM (inactive) | 46.7 µM (inactive) | > 100 µM (inactive)
C#C[C@]1(O)[C@@H](CO)O[C@@H](n2ccc(=O)[nH]c2=O)[C@@H]1O | 1.97 µM (inactive) | < 0.0134 µM (active) | 0.288 µM (active) | 0.791 µM (active) | 0.116 µM (active) | 0.0272 µM (active) | 0.0186 µM | 4.72 µM (inactive) | 0.724 µM (active) | 0.441 µM (active) | 0.082 µM (active) | 0.0592 µM (active) | 0.0117 µM (active) | 0.406 µM (active) | 0.0171 µM (active) | 0.144 µM (active) | < 0.01 µM (active) | 0.513 µM (active) | 0.357 µM (active) | 0.156 µM (active)
